Here are results for three compounds from patent US9402837B2, “Method for the treatment of neurological disorders by enhancing the activity of β-glucocerebrosidase” (Amicus Therapeutics, Inc., priority 2006, dated 2016).

Where a name gives a salt, the structure may show the parent alone.

Data set [1] addresses GCase (Mus musculus (Mouse), UniProt P17439). The data set can be described thus: In vivo GCase activity in normal mice upon treatment with IFG. Here is the method:
This Example provides information on the effects of isofagomine, a GCase-specific chaperone on mice. […] Ten male C57BL6 (25 g) mice per group were used. The drug was be given in the drinking water, therefore water consumption was monitored daily.
In the control group (0 mg/kg/day), the mice were dosed daily in the drinking water (no drug) and divided into two groups. Ten animals were euthanized after 4 weeks of treatment, blood was collected from the descending aorta or vena cava, and tissues were harvested and then necropsied.
In the test group, 10 mice were dosed daily in the drinking water with an administration aim of 200 mg/kg/day.
The blood samples were drawn into lithium heparin and spun for plasma. After bleeding, the spleen, lung, brain and liver were removed and placed into vials. The vials were put into dry ice for rapid freezing. The tissues and plasma were then analyzed for tissue levels of GCase.
Small portions of tissue were removed and added to 500 μl lysis buffer (20 mM sodium citrate and 40 mM disodium hydrogen phosphate, pH 4.0, including 0.1% Triton X-100). Tissues were then homogenized using a microhomogenizer for a brief time, followed by centrifugation at 10,000 rpm for 10 minutes at 4° C. Supernatants were transferred to a new tube and used for the enzyme assay.
The enhancement ratio is equal to the activity with the compound over the activity without the compound.

Data set [2] in a line: Phase I pharmacokinetics of oral IFG tartrate in healthy volunteers. Type of data set: in vivo, human. As to conditions: for accumulation after repeated doses: multiple-dose study, 7 days oral, Day 1 vs Day 7. Here is the method: (§1) In a first-in-human single ascending dose study (1a), doses of 8, 25, 75, 150 (two cohorts), and 300 mg were administered (6 active, 2 placebo in each cohort). In a multiple ascending dose study (1b), doses of 25, 75, and 225 mg were administered daily for seven days (6 active, 2 placebo in each cohort). In both studies, of the eight subjects in each group; six were randomized to receive IFG tartrate, and two subjects received placebo. Subjects were confined from the evening of day-1 until 24 hrs after completion of dosing. In the phase 1a study subjects returned at 48 hrs (PK sampling) and 7 days (safety follow-up) following dosing. In the phase 1b study subjects returned at 48 h (PD sampling), 7 days (PD sampling and safety follow-up), and 14 days (PD sampling) following the last dose
Subjects were healthy male and female volunteers between 19 and 55 years of age (inclusive) consisting of members of the community at large.
Blood samples (10 mL each) were collected in blood collection tubes containing EDTA before dosing was determined at regular intervals for the phas 1a during 48 hr following dosing. In the phase 1b study a full IFG tartrate pharmacokinetic profile was determined for 24 hr following the first dose, Cmin values were obtained pre-dose on day 6 and 7, and another full profile was determined for 24 hr following the final, day 7, dose.

Data set [3] concerns the target GCase (Homo sapiens (Human), UniProt P04062). Description: GCase enzymatic activity in healthy volunteers receiving IFG. The format is in vivo. Here is the method: as §1
GCase activity was determined pre-dose on days 1, 3, 5, 7, 9, 14, and 21. Blood samples were cooled in an ice bath and centrifuged under refrigeration as soon as possible. Plasma samples were divided into two aliquots and stored at […] pending assay. At the end of the study, all samples were transferred to MDS Pharma Services Analytical Laboratories (Lincoln) for analysis.

Data set [4] can be described thus: Phase I safety and tolerability in healthy volunteers. Type of data set: in vivo, human. How it is done: as §1
Safety was determined by evaluating vital signs, laboratory parameters (serum chemistry, hematology, and urinalysis), physical examination and by recording adverse events during the Treatment Period.
Safety data including laboratory evaluations, physical exams, adverse events, ECG monitoring and vital signs assessments were summarized by treatment group and point of time of collection. Descriptive statistics (arithmetic mean, standard deviation, median, minimum and maximum) were calculated for quantitative safety data as well as for the difference to baseline. Frequency counts were compiled for classification of qualitative safety data.

In data set [5] the test system is α-synuclein. The data set can be described thus: α-synuclein immunohistochemistry in transgenic mice over-expressing α-synuclein. The format is in vivo. How it is done: 48 transgenic animals (male and female) were allocated to 6 groups (n=8) at an age of 5 to 6 weeks concerning baseline and 3 to 4 weeks, respectively concerning all other treatment groups at treatment start. One group of transgenic animals served as baseline group (5 weeks old) and was sacrificed untreated on day 0. One group of transgenic animals was treated with vehicle.
Mice (ages 3-4 weeks) were treated once daily (orally) at either 2 mg/kg; 20 mg/kg; or 200 mg/kg of IFG tartrate for 3 months. One group also was treated once every other day at 20 mg/kg.
Animals of the baseline group were sacrificed at an age of 5 weeks. All other animals were sacrificed at the end of the 3 months treatment period and blood for preparation of serum and macrophages as well as lung, brain and CSF were extracted. Therefore, all mice were sedated by standard inhalation anesthesia (Isofluran, Baxter). Cerebrospinal fluid was obtained by blunt dissection and exposure of the foramen magnum. Upon exposure, a Pasteur pipette was inserted to the approximate depth of 0.3-1 mm into the foramen magnum. CSF was collected by suctioning and capillary action until flow fully ceases. CSF was immediately frozen and kept at −80° C.
After CSF sampling, each mouse was placed in dorsal recumbence, the thorax was opened and a 26-gauge needle attached to a 1 cc syringe was inserted into the right cardiac ventricular chamber. Light suction was applied to the needle. Blood was separated into 2 parts. […] Mice were transcardially perfused with physiological (0.9%) saline and lung tissue as well as brain was rapidly removed. The lungs were rinsed in cold PBS (outside only) to remove blood and then they were quick frozen.
The brains were removed and hemisected. The right hemispheres of all mice were immersion fixed in freshly produced 4% paraformaldehyde/PBS (pH 7.4) for one hour at room temperature. Thereafter brains were transferred to a 15% sucrose PBS solution for 24 hours to ensure cryoprotection. On the next day brains were frozen in liquid isopentane and stored at −80° C. until used for histological investigations. To determine the effects of the IFG-tartrate treatment from 8 animals per group 10 μm-thick cryosections were cut for determination of alpha-synuclein pathology. All organs and tissues mentioned were sampled and from specific brain regions i.e. hippocampus, midbrain, frontal cortex and striatum of one hemibrain were extracted and frozen. The other brain half was processed for histological evaluation.
For evaluation of the number of α-synuclein positive cells and Lewy body like inclusions an immunohistochemical staining was carried out using the monoclonal human alpha-synuclein specific antibody (Alexis@; Cat#804-258-L001), dilution 1:5, detected with secondary Cy2 antibody (Jackson Immunoresearch®). The number of alpha-synuclein positive cells in five different layers, one slice per layer, was counted for evaluation in the whole hippocampus and cortex seperately.
Briefly, samples were washed for 10 min with PBS at room temperature, followed by fixing for 30 min at room temperature with 4% paraformaldehyde, followed by washing 2 times for 5 min each with PBS at room temperature. For Proteinase K-treated sections, sections were incubated in PBS containing 10 μg/ml proteinase-K for 10 minutes at room temperature. Next, samples were incubated for 15 min at room temperature with blocking solution to block endogenous peroxidase, followed by two more 5 min washes with PBS. Samples were then incubated for 60 min at room temperature with a blocking reagent to block non-specific binding, followed by two more 5 min washes with PBS. Samples were then incubated with M.O.M. diluent for 5 min at room temperature, followed by incubation with the primary antibody (dilution 1:5 in M.O.M. diluent) for 60 min with at room temperature. […]

The test system of data set [6] is α-synuclein. The data set can be described thus: α-synuclein accumulation in brains of V394L knock-in mice treated with CBE. Conditions: CBE daily i.p. for 30 days. The format is in vivo. How it is done: Mice homozygous for the point mutations D409H or V394L and expressing a low level of saposin C in a prosaposin knock-out background, were analyzed for accumulation of α-synuclein in the brain. These mice have been reported to accumulate glucosylceramide in the brain. Mice homozygous for the point mutations V394L only, were analyzed for α-synuclein accumulation with and without CBE treatment. […] Mice were administered CBE daily by interperitonally injection for 30 consequitive days ([…] calculated from the total weight of the mouse) and brains were analyzed by immunohistochemistry for accumulation of α-synuclein.
Brain tissue was frozen and fixed for immunohistochemistry with 4% paraformaldehyde and serial sections were co-labelled with anti-human α-synuclein (ab1903; Abcam, Cambridge, Mass.) and rabbit anti-ubiquitin (ab7780; Abcam, Cambridge, Mass.).

Chain of GCase (Homo sapiens (Human), UniProt P04062) (P04062 40-536): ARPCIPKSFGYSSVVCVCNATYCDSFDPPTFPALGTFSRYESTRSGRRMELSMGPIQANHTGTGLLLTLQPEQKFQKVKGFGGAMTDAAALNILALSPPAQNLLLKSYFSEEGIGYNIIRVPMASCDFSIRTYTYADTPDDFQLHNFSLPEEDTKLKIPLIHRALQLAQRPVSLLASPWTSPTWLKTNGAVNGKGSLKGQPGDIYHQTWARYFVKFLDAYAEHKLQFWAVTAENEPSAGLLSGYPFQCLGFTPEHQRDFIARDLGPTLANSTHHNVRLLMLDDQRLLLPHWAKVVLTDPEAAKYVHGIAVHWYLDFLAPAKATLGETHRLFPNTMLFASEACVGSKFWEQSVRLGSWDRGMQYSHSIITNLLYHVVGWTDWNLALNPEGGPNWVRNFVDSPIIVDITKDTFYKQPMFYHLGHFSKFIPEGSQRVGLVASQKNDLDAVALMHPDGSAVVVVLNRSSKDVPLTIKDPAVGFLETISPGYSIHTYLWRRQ
Chain of GCase (Mus musculus (Mouse), UniProt P17439) (P17439 20-515): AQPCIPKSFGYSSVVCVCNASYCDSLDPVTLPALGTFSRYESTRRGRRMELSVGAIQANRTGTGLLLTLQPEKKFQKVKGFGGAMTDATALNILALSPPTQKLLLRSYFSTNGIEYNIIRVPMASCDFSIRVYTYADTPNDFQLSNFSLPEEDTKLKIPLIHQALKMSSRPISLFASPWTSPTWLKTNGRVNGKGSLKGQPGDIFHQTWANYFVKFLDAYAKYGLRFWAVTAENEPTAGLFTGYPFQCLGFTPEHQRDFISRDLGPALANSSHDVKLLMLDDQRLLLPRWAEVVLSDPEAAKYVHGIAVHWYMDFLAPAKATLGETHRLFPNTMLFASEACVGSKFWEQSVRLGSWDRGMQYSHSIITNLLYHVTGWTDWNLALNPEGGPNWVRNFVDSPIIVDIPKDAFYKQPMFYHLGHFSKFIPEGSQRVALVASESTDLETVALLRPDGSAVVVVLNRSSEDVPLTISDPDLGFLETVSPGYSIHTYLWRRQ

As to `OC[C@H]1CNC[C@@H](O)[C@@H]1O` [Isofagomine, (3R,4R,5R)-5-(hydroxymethyl)-3,4-piperidinediol], at GCase [1] (mice treated with 0, 1, 10, or 100 mg/kg/day), the “wild-type GCase activity dose-response” value is listed as “linear dose-response increase”. On GCase [1] (normal C57BL6 mice, 200 mg/kg/day in drinking water, liver, spleen, brain and lung), the “GCase levels in tissues” value is on record as “increased”. The “accumulation after repeated doses” value in data set [2] is “Minimal accumulation”. In data set [2] (repeated doses), the “sex differences in pharmacokinetic parameters” value is reported as “no observable sex differences”. Further, the “increase in GCase levels above baseline” value at GCase [3] (healthy volunteers, treatment period, dose-related, maximum reached) is given as “approximately 3.5 fold”. In addition, on GCase [3] (two weeks after the last dose), the “GCase levels after removal of the drug” value was “return to near baseline levels by day 21”. Further, the “adverse events most frequently reported” value in data set [4] (healthy adult subjects) is “contact dermatitis, headache, nausea, increased serum bilirubin, dizziness, scab, ocular hyperaemia, and puncture site pain”.
For the compound `OC[C@H]1CNC[C@@H](O)[C@@H]1O` [Isofagomine tartrate], the “number of α-synuclein immunoreactive cells in the hippocampus versus vehicle” value in the data set on α-synuclein [5] (2 mg/kg daily, 3 months) is on record as “reduced the number of immunoreactive cells in the hippocampus significantly”. Moreover, in the data set on α-synuclein [5] (2 mg/kg, mean of cortex and hippocampus), the “age-accompanied increase of α-synuclein positive cell load versus baseline” value is listed as “prevented mice from the age-accompanied increase of pathology”. In addition, in the data set on α-synuclein [5] (20 mg/kg, 3 months, single responding animal), the “accumulation of Proteinase K-resistant α-synuclein aggregates” value is listed as “prevents the accumulation of these α-synuclein aggregates”. In the data set with α-synuclein [5] (20 mg/kg, daily or every other day, 3 months), the “α-synuclein pathology versus controls” value is on record as “not effective versus controls”. Moreover, the “qualitative α-synuclein immunostaining versus control animals” value in the data set on α-synuclein [5] (2 and 20 mg/kg b.w. daily, 3 months, cortex and hippocampus) is “strongly decreased background and decreased α-synuclein positive cell numbers in some”. In the data set with α-synuclein [5] (3 months treatment), the “α-synuclein pathology in the cortex” value is reported as “did not reach significance level in the cortex”. In addition, in data set [2] (healthy volunteers), the “systemic exposure via the oral route” value is “good systemic exposure”. The “accumulation after repeated doses” value in data set [2] is recorded as “no unexpected accumulation”. The “plasma AUC and Cmax versus administered dose” value in data set [2] (single-dose study) is “linearly correlated with administered dose”. Besides, the serious adverse events entry in data set [4] (healthy volunteers, both Phase I studies) is “No serious adverse events occurred”. Moreover, in data set [4] (healthy volunteers, single (8-300 mg) and multiple (25-225 mg, 7 days) oral doses), the tolerability entry is given as “generally well tolerated”.
Consider `O[C@H]1[C@H](O)[C@@H](O)[C@@H]2O[C@@H]2[C@@H]1O` [CBE, conduritol-β-epoxide], for which the “α-synuclein in the brain” value in the data set on α-synuclein [6] is “resulted in accumulation of α-synuclein in the brain”.
